According to ChEMBL document CHEMBL4630905 (2021):
Active and inactive are the calls of the source. No cut-off for these calls is given here.

Key:
D(4) dopamine receptor = D(4) dopamine receptor (Homo sapiens, UniProt P21917); assay: GPCRScan assay: inhibition of D4; parameters: radioligand conc. used [nm] 0.6 – 1.7, parental cells Stable HEK
[1] = biological target: T1, Bromodomain-containing protein 3 (Homo sapiens, UniProt Q15059); assay: BET mutant TR-FRETassay (BRD3 BD1)
[2] = biological target: T1, Bromodomain-containing protein 3; assay: BET mutant TR-FRET assay (BRD3 BD2)
[3] = biological target: T2, Bromodomain testis-specific protein (Homo sapiens, UniProt Q58F21); assay: BET mutant TR-FRET assay (BRDT BD1)
[4] = biological target: T2, Bromodomain testis-specific protein; assay: BET mutant TR-FRET assay (BRDT BD2)
MV4-11 = assay: Proliferation assay (MV-4−11 cells); type: functional, cell-based; settings: Homo sapiens
THP-1 = assay: Proliferation assay (THP-1 cells); type: functional, cell-based; settings: Homo sapiens
Interleukin-6 = Interleukin-6 (Homo sapiens, UniProt P05231); assay: In vitro inhibition of IL-6 in Lipopolysaccharide-stimulated human whole blood; type: tissue-based
[5] = biological target: Bromodomain adjacent to zinc finger domain protein 2B (Homo sapiens, UniProt Q9UIF8); assay: BAZ2B DiscoverX BROMOscan
[6] = biological target: Bromodomain-containing protein 1 (Homo sapiens, UniProt O95696); assay: BRD1 DiscoverX BROMOscan
[7] = biological target: T3, Bromodomain-containing protein 8 (Homo sapiens, UniProt Q9H0E9); assay: BRD8 (BD1) DiscoverX BROMOscan
[8] = biological target: T3, Bromodomain-containing protein 8; assay: BRD8 (BD2) DiscoverX BROMOscan
[9] = biological target: Bromodomain-containing protein 9 (Homo sapiens, UniProt Q9H8M2); assay: BRD9 DiscoverX BROMOscan
[10] = biological target: T2, Bromodomain testis-specific protein; assay: BRDT (1,2) DiscoverX BROMOscan
[11] = biological target: Bromodomain and PHD finger-containing protein 3 (Homo sapiens, UniProt Q9ULD4); assay: BRPF3 DiscoverX BROMOscan
[12] = biological target: Histone acetyltransferase p300 (Homo sapiens, UniProt Q09472); assay: EP300 DiscoverX BROMOscan
[13] = biological target: Nucleosome-remodeling factor subunit BPTF (Homo sapiens, UniProt Q12830); assay: FALZ DiscoverX BROMOscan
[14] = biological target: Histone acetyltransferase KAT2A (Homo sapiens, UniProt Q92830); assay: GCN5L2 DiscoverX BROMOscan
Protein polybromo-1 = Protein polybromo-1 (Homo sapiens, UniProt Q86U86); assay: PBRM1 (BD2) DiscoverX BROMOscan
[15] = biological target: Histone acetyltransferase KAT2B (Homo sapiens, UniProt Q92831); assay: PCAF DiscoverX BROMOscan
[16] = biological target: SWI/SNF-related matrix-associated actin-dependent regulator of chromatin subfamily A member 2 (Homo sapiens, UniProt P51531); assay: SMARCA2 DiscoverX BROMOscan
[17] = biological target: SWI/SNF-related matrix-associated actin-dependent regulator of chromatin subfamily A member 4 (Homo sapiens, UniProt P51532); assay: SMARCA4 DiscoverX BROMOscan
[18] = biological target: Transcription intermediary factor 1-alpha (Homo sapiens, UniProt O15164); assay: TRIM24 (TIF1alpha) (PHD & BD) DiscoverX BROMOscan
[19] = biological target: E3 ubiquitin-protein ligase TRIM33 (Homo sapiens, UniProt Q9UPN9); assay: TRIM33 (TIF1gamma) (PHD & BD) DiscoverX BROMOscan
[20] = biological target: Bromodomain and WD repeat-containing protein 1 (Homo sapiens, UniProt Q9NSI6); assay: WDR9 (BD2) DiscoverX BROMOscan
[21] = biological target: 5-hydroxytryptamine receptor 1A (Homo sapiens) (UniProt P08908); settings: Compound concentration 10.0 uM
[22] = biological target: 5-hydroxytryptamine receptor 1B (Homo sapiens) (UniProt P28222); settings: Compound concentration 10.0 uM
[23] = biological target: 5-hydroxytryptamine receptor 1D (Homo sapiens) (UniProt P28221); settings: Compound concentration 10.0 uM
[24] = biological target: 5-hydroxytryptamine receptor 2A (Homo sapiens) (UniProt P28223); settings: Compound concentration 10.0 uM
[25] = biological target: 5-hydroxytryptamine receptor 2C (Homo sapiens) (UniProt P28335); settings: Compound concentration 10.0 uM
[26] = biological target: 5-hydroxytryptamine receptor 3A (Homo sapiens) (UniProt P46098); settings: Compound concentration 10.0 uM
[27] = biological target: 5-hydroxytryptamine receptor 5A (Homo sapiens) (UniProt P47898); settings: Compound concentration 10.0 uM
[28] = biological target: D(1A) dopamine receptor (Homo sapiens) (UniProt P21728); settings: Compound concentration 10.0 uM
[29] = biological target: D(1B) dopamine receptor (Homo sapiens) (UniProt P21918); settings: Compound concentration 10.0 uM
[30] = biological target: Sodium-dependent serotonin transporter (Homo sapiens) (UniProt P31645); settings: Compound concentration 10.0 uM
[31] = biological target: Sodium-dependent noradrenaline transporter (Homo sapiens) (UniProt P23975); settings: Compound concentration 10.0 uM
[32] = biological target: Sodium-dependent dopamine transporter (Homo sapiens) (UniProt Q01959); settings: Compound concentration 10.0 uM
[33] = biological target: Histamine H2 receptor (Homo sapiens) (UniProt P25021); settings: Compound concentration 10.0 uM
[34] = biological target: Histamine H4 receptor (Homo sapiens) (UniProt Q9H3N8); settings: Compound concentration 10.0 uM
[35] = biological target: Alpha-1A adrenergic receptor (Homo sapiens) (UniProt P35348); settings: Compound concentration 10.0 uM
[36] = biological target: Alpha-2A adrenergic receptor (Homo sapiens) (UniProt P08913); settings: Compound concentration 10.0 uM
[37] = biological target: Alpha-2B adrenergic receptor (Homo sapiens) (UniProt P18089); settings: Compound concentration 10.0 uM
[38] = biological target: Alpha-2C adrenergic receptor (Homo sapiens) (UniProt P18825); settings: Compound concentration 10.0 uM
[39] = biological target: Beta-1 adrenergic receptor (Homo sapiens) (UniProt P08588); settings: Compound concentration 10.0 uM
[40] = biological target: Beta-2 adrenergic receptor (Homo sapiens) (UniProt P07550); settings: Compound concentration 10.0 uM
[41] = biological target: Muscarinic acetylcholine receptor M1 (Homo sapiens) (UniProt P11229); settings: Compound concentration 10.0 uM
[42] = biological target: Muscarinic acetylcholine receptor M2 (Homo sapiens) (UniProt P08172); settings: Compound concentration 10.0 uM
Rattus norvegicus = species: Rattus norvegicus; settings: Compound concentration 10.0 uM
[43] = biological target: Alpha-1D adrenergic receptor (Homo sapiens) (UniProt P25100); settings: Compound concentration 10.0 uM
[44] = biological target: Sigma intracellular receptor 2 (Homo sapiens) (UniProt Q5BJF2); settings: Compound concentration 10.0 uM
Sequence of Sigma intracellular receptor 2 (Homo sapiens) (Q5BJF2 whole entry): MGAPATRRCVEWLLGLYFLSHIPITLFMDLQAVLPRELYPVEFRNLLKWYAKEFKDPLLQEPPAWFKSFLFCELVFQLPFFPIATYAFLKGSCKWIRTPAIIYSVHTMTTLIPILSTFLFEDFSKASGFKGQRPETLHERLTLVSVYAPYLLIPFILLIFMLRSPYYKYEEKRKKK

Sequence of D(4) dopamine receptor (P21917 whole entry): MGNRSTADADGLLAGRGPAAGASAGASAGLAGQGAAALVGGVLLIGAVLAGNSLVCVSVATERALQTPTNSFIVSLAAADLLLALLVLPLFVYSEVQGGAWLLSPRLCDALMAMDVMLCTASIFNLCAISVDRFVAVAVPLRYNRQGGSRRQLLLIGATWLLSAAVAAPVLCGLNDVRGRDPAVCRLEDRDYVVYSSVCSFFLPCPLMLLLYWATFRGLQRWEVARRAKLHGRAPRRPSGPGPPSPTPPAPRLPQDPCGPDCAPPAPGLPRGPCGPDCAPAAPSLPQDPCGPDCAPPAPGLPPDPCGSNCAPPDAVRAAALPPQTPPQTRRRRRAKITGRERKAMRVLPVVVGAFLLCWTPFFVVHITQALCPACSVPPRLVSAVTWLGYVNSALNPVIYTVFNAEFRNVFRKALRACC
T3 sequence (Q9H0E9 whole entry): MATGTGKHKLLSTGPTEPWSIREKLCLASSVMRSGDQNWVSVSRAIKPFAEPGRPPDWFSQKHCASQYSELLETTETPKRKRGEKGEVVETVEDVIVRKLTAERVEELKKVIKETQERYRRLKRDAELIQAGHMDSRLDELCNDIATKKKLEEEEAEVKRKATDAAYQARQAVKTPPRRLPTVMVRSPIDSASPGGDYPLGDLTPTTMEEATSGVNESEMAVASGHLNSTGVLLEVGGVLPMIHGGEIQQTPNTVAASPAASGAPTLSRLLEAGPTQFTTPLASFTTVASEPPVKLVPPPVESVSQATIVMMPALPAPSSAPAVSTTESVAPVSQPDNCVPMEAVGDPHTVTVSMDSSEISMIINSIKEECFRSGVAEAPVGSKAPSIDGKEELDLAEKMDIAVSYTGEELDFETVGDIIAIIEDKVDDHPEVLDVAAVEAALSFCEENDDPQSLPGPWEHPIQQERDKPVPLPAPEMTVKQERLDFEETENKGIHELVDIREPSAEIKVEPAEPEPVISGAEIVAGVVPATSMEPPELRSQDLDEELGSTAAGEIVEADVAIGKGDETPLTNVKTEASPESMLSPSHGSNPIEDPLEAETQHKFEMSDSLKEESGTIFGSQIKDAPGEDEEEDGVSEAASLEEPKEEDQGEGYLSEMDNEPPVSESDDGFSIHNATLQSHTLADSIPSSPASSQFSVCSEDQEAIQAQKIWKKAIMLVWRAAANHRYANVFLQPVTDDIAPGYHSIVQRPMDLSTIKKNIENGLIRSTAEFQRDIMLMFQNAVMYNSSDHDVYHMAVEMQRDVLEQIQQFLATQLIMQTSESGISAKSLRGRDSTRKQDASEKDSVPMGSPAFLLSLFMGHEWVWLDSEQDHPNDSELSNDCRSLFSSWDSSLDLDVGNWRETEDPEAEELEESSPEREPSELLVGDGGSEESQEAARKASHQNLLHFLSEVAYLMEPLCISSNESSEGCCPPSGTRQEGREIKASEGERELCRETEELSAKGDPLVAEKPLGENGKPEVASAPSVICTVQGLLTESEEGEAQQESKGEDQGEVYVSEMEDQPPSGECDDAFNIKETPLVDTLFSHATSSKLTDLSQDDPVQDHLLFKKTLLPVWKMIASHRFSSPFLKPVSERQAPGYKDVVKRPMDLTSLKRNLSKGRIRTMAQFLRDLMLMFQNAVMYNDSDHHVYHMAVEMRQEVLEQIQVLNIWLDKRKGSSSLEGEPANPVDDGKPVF
T1 sequence (Q15059 2-726 limits assumed, change not shown): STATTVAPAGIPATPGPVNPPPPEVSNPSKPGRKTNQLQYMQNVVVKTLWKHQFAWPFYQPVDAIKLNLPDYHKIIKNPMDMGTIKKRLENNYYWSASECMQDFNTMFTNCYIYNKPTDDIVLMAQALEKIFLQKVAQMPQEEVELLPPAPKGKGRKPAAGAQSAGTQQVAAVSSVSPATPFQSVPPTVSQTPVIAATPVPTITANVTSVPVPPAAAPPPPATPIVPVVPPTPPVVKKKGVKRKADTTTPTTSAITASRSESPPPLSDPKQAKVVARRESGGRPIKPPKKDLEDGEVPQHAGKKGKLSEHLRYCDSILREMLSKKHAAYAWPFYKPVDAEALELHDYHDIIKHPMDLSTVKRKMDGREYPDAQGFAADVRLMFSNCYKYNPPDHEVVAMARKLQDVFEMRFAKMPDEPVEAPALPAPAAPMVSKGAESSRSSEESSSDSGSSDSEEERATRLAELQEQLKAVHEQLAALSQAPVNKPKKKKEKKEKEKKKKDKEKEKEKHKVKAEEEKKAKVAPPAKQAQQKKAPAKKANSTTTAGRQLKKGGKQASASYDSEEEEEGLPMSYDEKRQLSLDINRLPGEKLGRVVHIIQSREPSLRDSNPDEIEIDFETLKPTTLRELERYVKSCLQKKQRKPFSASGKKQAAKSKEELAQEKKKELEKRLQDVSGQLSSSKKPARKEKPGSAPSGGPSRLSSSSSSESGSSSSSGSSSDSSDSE
Sequence of Alpha-1A adrenergic receptor (Homo sapiens) (P35348 whole entry): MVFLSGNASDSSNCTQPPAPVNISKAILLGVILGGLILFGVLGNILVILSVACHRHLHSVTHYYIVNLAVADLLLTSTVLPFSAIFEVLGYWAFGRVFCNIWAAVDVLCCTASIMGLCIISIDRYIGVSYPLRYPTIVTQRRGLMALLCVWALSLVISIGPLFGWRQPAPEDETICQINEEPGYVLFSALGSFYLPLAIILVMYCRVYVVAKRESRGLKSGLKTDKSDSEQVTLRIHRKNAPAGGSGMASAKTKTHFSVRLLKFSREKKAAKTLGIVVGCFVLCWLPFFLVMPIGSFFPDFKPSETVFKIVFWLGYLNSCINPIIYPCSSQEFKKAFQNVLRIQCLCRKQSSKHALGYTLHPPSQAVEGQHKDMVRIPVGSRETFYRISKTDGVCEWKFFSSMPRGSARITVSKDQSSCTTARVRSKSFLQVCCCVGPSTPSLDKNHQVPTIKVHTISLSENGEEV
Sequence of Bromodomain and PHD finger-containing protein 3 (Q9ULD4 whole entry): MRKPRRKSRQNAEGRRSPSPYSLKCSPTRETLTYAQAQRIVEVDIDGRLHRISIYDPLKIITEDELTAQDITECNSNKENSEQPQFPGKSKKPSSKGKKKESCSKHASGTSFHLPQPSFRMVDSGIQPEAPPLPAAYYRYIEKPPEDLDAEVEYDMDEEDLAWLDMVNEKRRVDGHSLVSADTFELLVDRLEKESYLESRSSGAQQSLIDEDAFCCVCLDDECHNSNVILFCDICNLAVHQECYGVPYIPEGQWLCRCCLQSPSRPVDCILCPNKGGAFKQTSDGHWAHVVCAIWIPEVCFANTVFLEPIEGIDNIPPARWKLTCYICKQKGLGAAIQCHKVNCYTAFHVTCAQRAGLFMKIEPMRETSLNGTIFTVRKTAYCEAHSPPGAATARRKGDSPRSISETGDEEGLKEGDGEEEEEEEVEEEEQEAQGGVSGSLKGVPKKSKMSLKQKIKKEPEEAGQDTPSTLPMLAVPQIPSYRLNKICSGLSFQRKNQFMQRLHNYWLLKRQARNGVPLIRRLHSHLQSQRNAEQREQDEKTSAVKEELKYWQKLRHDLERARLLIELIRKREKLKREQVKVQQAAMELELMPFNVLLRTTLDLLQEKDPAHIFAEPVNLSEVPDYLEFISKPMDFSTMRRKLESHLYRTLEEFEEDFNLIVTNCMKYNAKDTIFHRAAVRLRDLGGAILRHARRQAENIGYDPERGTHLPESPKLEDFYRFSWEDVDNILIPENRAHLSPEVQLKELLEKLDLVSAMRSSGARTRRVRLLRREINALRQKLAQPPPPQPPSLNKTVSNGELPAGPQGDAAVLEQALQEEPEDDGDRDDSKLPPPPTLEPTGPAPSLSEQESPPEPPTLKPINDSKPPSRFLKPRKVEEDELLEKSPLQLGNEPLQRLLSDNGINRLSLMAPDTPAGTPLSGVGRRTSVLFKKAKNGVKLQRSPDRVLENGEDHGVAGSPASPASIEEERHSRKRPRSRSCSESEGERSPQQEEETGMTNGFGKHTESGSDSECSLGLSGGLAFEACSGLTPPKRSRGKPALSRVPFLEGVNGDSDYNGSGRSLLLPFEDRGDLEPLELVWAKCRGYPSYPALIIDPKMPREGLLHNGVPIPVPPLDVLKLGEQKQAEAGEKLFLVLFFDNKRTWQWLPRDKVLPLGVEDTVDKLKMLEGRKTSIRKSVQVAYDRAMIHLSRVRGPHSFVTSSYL
Sequence of D(1B) dopamine receptor (Homo sapiens) (P21918 whole entry): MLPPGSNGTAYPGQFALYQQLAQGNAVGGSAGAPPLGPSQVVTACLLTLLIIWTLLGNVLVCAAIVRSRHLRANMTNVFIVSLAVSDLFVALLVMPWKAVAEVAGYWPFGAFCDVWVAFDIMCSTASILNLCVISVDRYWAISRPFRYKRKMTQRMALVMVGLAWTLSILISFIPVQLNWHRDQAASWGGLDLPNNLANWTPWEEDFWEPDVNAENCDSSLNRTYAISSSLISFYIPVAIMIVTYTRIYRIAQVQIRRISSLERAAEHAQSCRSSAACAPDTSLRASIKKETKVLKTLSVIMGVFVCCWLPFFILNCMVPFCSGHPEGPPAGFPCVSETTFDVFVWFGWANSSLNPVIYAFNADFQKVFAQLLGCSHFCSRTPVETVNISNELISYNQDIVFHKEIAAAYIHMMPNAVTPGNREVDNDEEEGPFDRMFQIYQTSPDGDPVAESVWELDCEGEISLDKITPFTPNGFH
Sequence of Interleukin-6 (P05231 whole entry, the tested form may be a part): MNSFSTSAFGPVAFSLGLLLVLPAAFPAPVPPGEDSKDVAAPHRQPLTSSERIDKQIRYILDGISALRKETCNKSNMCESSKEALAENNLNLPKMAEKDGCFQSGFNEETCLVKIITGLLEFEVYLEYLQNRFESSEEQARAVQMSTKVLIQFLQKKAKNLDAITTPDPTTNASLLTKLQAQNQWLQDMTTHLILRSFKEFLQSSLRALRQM

For `Cc1cc2c(-c3ccco3)cnc(N[C@@H]3CCN(C)C[C@H]3C(=O)NC3CCCCC3)c2[nH]c1=O` [GSK789], which Ki (D(4) dopamine receptor; read-out: Ki) is on record?
The Ki was 1010 nM.

And the Ki (D(4) dopamine receptor; read-out: pKi (converted))?
The Ki was 1010 nM.

What about the pIC50 [1] of the same molecule?
Its pIC50 is 6.8.

What about the pIC50 [2] of the same molecule?
The pIC50 was 4.7.

What about the pIC50 [3] of the same molecule?
Its pIC50 is 6.2.

And the pIC50 [4]?
Its pIC50 is 4.9.

What about the IC50 (MV4-11) of the same molecule?
Its IC50 is 125 nM (active).

What about the IC50 (THP-1) of the same molecule?
Its IC50 is 258 nM (active).

And the IC50 (Interleukin-6)?
The IC50 was 3.55 µM (active).

What about the Kd [5] of the same molecule?
Its Kd is 31.6 µM.

And the Kd [6]?
The Kd was 31.6 µM.

And the Kd [7]?
Its Kd is 31.6 µM.

What about the Kd [8] of the same molecule?
The Kd was 31.6 µM.

What about the Kd [9] of the same molecule?
The Kd was 31.6 µM.

What about the Kd [10] of the same molecule?
The Kd was 100 nM.

And the Kd [11]?
Its Kd is 31.6 µM.

And the Kd [12]?
Its Kd is 25.1 µM.

What about the Kd [13] of the same molecule?
The Kd was 31.6 µM.

What about the Kd [14] of the same molecule?
The Kd was 31.6 µM.

And the Kd (Protein polybromo-1)?
Its Kd is 31.6 µM.

What about the Kd [15] of the same molecule?
The Kd was 31.6 µM.

What about the Kd [16] of the same molecule?
Its Kd is 31.6 µM.

What about the Kd [17] of the same molecule?
Its Kd is 31.6 µM.

What about the Kd [18] of the same molecule?
The Kd was 31.6 µM.

And the Kd [19]?
Its Kd is 31.6 µM.

What about the Kd [20] of the same molecule?
The Kd was 31.6 µM.

And the inhibition [21]?
The inhibition was 17.3%.

What about the inhibition [22] of the same molecule?
Its inhibition is 3.37%.

What about the inhibition [23] of the same molecule?
Its inhibition is -6.42%.

And the inhibition [24]?
Its inhibition is -5.01%.

And the inhibition [25]?
The inhibition was 14%.

And the inhibition [26]?
The inhibition was 31.8%.

What about the inhibition [27] of the same molecule?
The inhibition was 24.1%.

And the inhibition [28]?
The inhibition was 27.3%.

And the inhibition [29]?
Its inhibition is 33.2%.

And the inhibition [30]?
Its inhibition is 17.7%.

What about the inhibition [31] of the same molecule?
The inhibition was 30.5%.

And the inhibition [32]?
Its inhibition is 28.5%.

What about the inhibition [33] of the same molecule?
Its inhibition is -1.12%.

What about the inhibition [34] of the same molecule?
Its inhibition is 15.9%.

And the inhibition [35]?
The inhibition was 25.2%.

What about the inhibition [36] of the same molecule?
Its inhibition is -3.97%.

What about the inhibition [37] of the same molecule?
The inhibition was -0.37%.

And the inhibition [38]?
Its inhibition is 8.58%.

And the inhibition [39]?
Its inhibition is 1.68%.

And the inhibition [40]?
Its inhibition is 19.8%.

What about the inhibition [41] of the same molecule?
The inhibition was -9.42%.

What about the inhibition [42] of the same molecule?
Its inhibition is 0.27%.

What about the inhibition (Rattus norvegicus) of the same molecule?
Its inhibition is 3.9%.

And the inhibition [43]?
The inhibition was 36.6%.

What about the inhibition [44] of the same molecule?
The inhibition was 9.26%.
